Experimental findings from ChEMBL document CHEMBL2046435, “Cytotoxic metabolites from the antarctic psychrophilic fungus Oidiodendron truncatum” (J Nat Prod, 2012) are described below.

Where only a bound is given, the exact number is not on record here.

Assay type in all cases: functional, cell-based
Assay [1] deals with HCT-8. Put plainly: Cytotoxicity against human HCT8 cells after 72 hrs by MTT assay. Particulars: HCT-8, 72 h. A general note: Tetrazolium dyes change colour on reduction, which living cells bring about.
Assay [2] deals with Bel-7402. Put plainly: Cytotoxicity against human Bel7402 cells after 72 hrs by MTT assay. Particulars: Bel-7402, 72 h.
Assay [3] has as its system BGC-823. Put plainly: Cytotoxicity against human BGC823 cells after 72 hrs by MTT assay. As to conditions: BGC-823, 72 h.
For assay [4], the system named is A549. The assay can be described thus: Cytotoxicity against human A549 cells after 72 hrs by MTT assay. As to conditions: A549, 72 h.
The subject of assay [5] is A2780. Put plainly: Cytotoxicity against human A2780 cells after 72 hrs by MTT assay. Particulars: A2780, 72 h.

As to `O=C1N[C@@H](Cc2c[nH]c3ccccc23)C(=O)N[C@H]1CO`, the IC50 in assay [1], in assay [2], in assay [3], in assay [4] and in assay [5] was above 10 µM throughout.
Consider `CN1C(=O)[C@]23SSS[C@]1(CO)C(=O)N2[C@H]1Nc2ccccc2[C@@]1(c1c[nH]c2ccccc12)[C@@H]3O`, for which the IC50 in assay [1] was determined as 1.18 µM; in assay [2] it was 0.75 µM; in assay [3], 1.46 µM; in assay [4], 1.53 µM; in assay [5], 0.42 µM.
Consider `CS[C@]1(CO)NC(=O)[C@](Cc2c[nH]c3ccccc23)(SC)NC1=O` [CHETOSEMINUDIN C], for which the IC50 in assay [1], in assay [2], in assay [3], in assay [4] and in assay [5] was above 10 µM in each case.
For the molecule `CN1C(=O)[C@]23SS[C@@]1(CO)C(=O)N2[C@H]1Nc2ccccc2C1([C@@]12c4ccccc4N[C@@H]1N1C(=O)[C@]4(CO)SSS[C@]1(C(=O)N4C)[C@H]2O)[C@@H]3O` (stereo partly drawn) [CHETRACIN B], the IC50 in assay [1] turned out to be 0.013 µM; in assay [2] it was 0.003 µM; in assay [3] it was 0.011 µM; in assay [4] it was 0.022 µM; in assay [5] it was 0.028 µM.
The like results for `CN1C(=O)[C@]23SSS[C@@]1(CO)C(=O)N2[C@H]1Nc2ccccc2C1([C@@]12c4ccccc4N[C@@H]1N1C(=O)[C@]4(CO)SSS[C@]1(C(=O)N4C)[C@H]2O)[C@@H]3O` (stereo partly drawn) [CHETRACIN C] were, in that order, 0.49 µM, 0.38 µM, 0.7 µM, 0.72 µM and 0.58 µM.
As for `CS[C@@]1(CO)C(=O)N2[C@H]3Nc4ccccc4C3([C@@]34c5ccccc5N[C@@H]3N3C(=O)[C@](CO)(SC)N(C)C(=O)[C@@]3(SC)[C@H]4O)[C@H](O)[C@]2(SC)C(=O)N1C` (stereo partly drawn) [CHETRACIN D], the IC50 in assay [1] worked out at 1.06 µM; in assay [2], 0.81 µM; in assay [3] it was 1.83 µM; in assay [4] it was 0.14 µM; in assay [5], 1.65 µM.
The like results for `CN1C(=O)[C@]23SS[C@@]1(CO)C(=O)N2[C@H]1Nc2ccccc2C1([C@@]12c4ccccc4N[C@@H]1N1C(=O)[C@]4(CO)SS[C@]1(C(=O)N4C)[C@H]2O)[C@@H]3O` (stereo partly drawn) [MELINACIDIN IV] were, in that order, 0.052 µM, 0.005 µM, 0.047 µM, 0.022 µM and 0.054 µM.
The matching figures for `CS[C@@]1(CO)C(=O)N2[C@H]3N(C=O)c4ccccc4[C@@]3(c3c[nH]c4ccccc34)[C@H](O)[C@]2(SC)C(=O)N1C` [OIDIOPERAZINE A]: above 10 µM, above 10 µM, above 10 µM, above 10 µM and above 10 µM.
Regarding `CON1C(=O)C(CO)NC(=O)C1(O)Cc1c[nH]c2ccccc12` (stereo not drawn) [OIDIOPERAZINE B], the IC50 in assay [1], in assay [2], in assay [3], in assay [4] and in assay [5] was above 10 µM each time.
`COC1(CO)NC(=O)/C(=C/c2c[nH]c3ccccc23)NC1=O` (stereo not drawn) [OIDIOPERAZINE C]: the IC50 in assay [1], in assay [2], in assay [3], in assay [4] and in assay [5] was above 10 µM each time.
Regarding `C=C1NC(=O)C(Cc2c[nH]c3ccccc23)(OC)N(OC)C1=O` (stereo not drawn) [OIDIOPERAZINE D], the IC50 in assay [1], in assay [2], in assay [3], in assay [4] and in assay [5] was above 10 µM in each case.
Take `CC(=O)O[C@H]1C(=O)[C@@]2(C)[C@H]([C@H](OC(=O)c3ccccc3)[C@]3(O)C[C@H](OC(=O)[C@H](O)[C@@H](NC(=O)c4ccccc4)c4ccccc4)C(C)=C1C3(C)C)[C@]1(OC(C)=O)CO[C@@H]1C[C@@H]2O` [PACLITAXEL]: the figures for the IC50 in assay [2], in assay [3] and in assay [5] were 0.006 µM, below 0.001 µM and below 0.001 µM, respectively.
Turning to `CS[C@@]1(CO)C(=O)N2[C@H]3Nc4ccccc4[C@@]3(c3c[nH]c4ccccc34)[C@H](O)[C@]2(SC)C(=O)N1C` [T988 B], the IC50 in assay [1], in assay [2], in assay [3], in assay [4] and in assay [5] was above 10 µM throughout.
Turning to `CN1C(=O)[C@]23SS[C@]1(CO)C(=O)N2[C@H]1Nc2ccccc2[C@@]1(c1c[nH]c2ccccc12)[C@@H]3O` [T988 C], the IC50 in assay [1] stood at 0.7 µM; in assay [2] it was 0.55 µM; in assay [3], 0.67 µM; in assay [4] it was 1.24 µM; in assay [5], 0.48 µM.

What is called IC50 is the concentration that inhibits the measured activity by half. A high value points to weaker potency in that assay.
